Results as given in PMC12648313, “Enhancing the Efficacy, Utility, and Throughput of the Transcription Block Survival Peptide Library Screening Platform” (JACS Au, 2025).

Legend:
ATF2 bZIP-CRE DNA = test: TBS peptide library screening, competition selection; format: cell-based, human ATF2 bZIP, in E. coli BL21-Gold; conditions: 11.3-million-member library; nine rounds of selection; 9xCRE mDHFR; selective M9, 37 °C
Source text: This validates the new TBS design for the introduction of a transcriptional block and for the ability of antagonist peptides to restore bacterial growth in the CRE/CREB systems. We next constructed an 11.3-million-member peptide library to identify antagonists of ATF2, representing the first such effort to target this TF. This library design includes an N-terminal acidic domain, developed by Vinson and coworkers to engage bZIP DNA-binding domains (DBDs), followed by a semirandomized LZ region. Canonical coiled coil heptad repeat e and g positions were semirandomized to include glu, gln or lys options, with two exceptions to increase library diversity: e7 (ile, asn, asp or val) and g8 (leu, gln, glu or val). The a positions were randomized to select from leu, ile or val, to optimize hydrophobic packing in the coiled coil core, except a6 which also included asn or asp to investigate potential core polar interactions. The d positions were fixed as leu to promote formation of a desired parallel, dimeric coiled coil. […]
colonies: E = […] where E is the percentage of the library missing, m is the number of colonies collected and n is the library size. Library DNA quality was assessed by sequencing both the DNA pool and a number of single colonies to show degenerate codons in the correct positions in the pool and to show a diversity of library members from single […]

ATF2 = target: T1, ATF2 (Homo sapiens, UniProt P15336); test: Circular dichroism spectra; format: binding; conditions: pH 7.4
T1 construct: human ATF2 bZIP domain spans from Asp352 to Gln410; made in house; host or cells: chemical synthesis (Fmoc solid-phase peptide synthesis), no expression host
T1 sequence (P15336 352-410): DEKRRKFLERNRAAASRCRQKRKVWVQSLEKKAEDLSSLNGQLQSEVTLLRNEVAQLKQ
Source text: removed before peptide concentration determination.
Peptide samples were suspended in 20

CREB1-CRE complex = target: T2, CREB1-CRE complex (Homo sapiens, UniProt P16220); test: FP antagonism assay CREB1-CRE; format: biochemical; conditions: FP IC50, CREB1-CRE vs ATF2-CRE
T2 construct: Ala283 to Asp341
T2 sequence (P16220 283-341 isoform P16220-1): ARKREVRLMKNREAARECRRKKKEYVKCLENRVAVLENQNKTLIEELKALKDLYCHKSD
Protocol: (§1) Fluorescence polarization (FP) was next utilized to confirm that ATF2W binding induces the intended antagonism of the ATF2-CRE interaction. […] To assess ATF2W antagonism, 625 nM ATF2, which corresponded to 80% of the maximum DNA binding, was incubated with CRE DNA (10 nM) and varied concentrations of ATF2W (29 nM-12 μM). […] This represents a ∼ 3-fold selectivity for ATF2. […] As the peptide library was designed using established coiled coil interaction rules, it was expected that many sequences would bind the target.
(§2) (DMF). Deprotection was performed by addition of 0.75 mL 30% pyrrolidine into the coupling reaction. Peptides were acetylated at the N-terminus by a final reaction with 3x acetic anhydride, 4.5x diisopropylethylamine in DMF for one hour at room temperature. Incubation in a cleavage mixture (95% TFA, 2.5% triisopropylsilane, 2.5% H2O, 10 mL) for 4 h at room temperature cleaved the peptide from the resin and removed side chain protecting groups.
(§3) 2.5% DODT was added to the cleavage cocktail for ATF2. The resin was removed by filtration and cleaved peptides were precipitated in diethyl ether at -80°C and centrifuged.
(§4) This pellet was washed a further four times with diethyl ether before it was dried overnight at room temperature. […]

cJun-TRE complex = target: T3, cJun-TRE complex (Homo sapiens, UniProt P05412); test: FP antagonism assay cJun-TRE; format: biochemical
T3 construct: In the case of the CREB1 and cJun bZIP domains

ATF2-CRE DNA interaction = target: T4, ATF2-CRE DNA interaction (Homo sapiens, UniProt P15336); test: FP antagonism assay ATF2-CRE; format: biochemical; conditions: up to 12 μM ATF2W
T4 construct: human ATF2 bZIP domain spans from Asp352 to Gln410; made in house; host or cells: chemical synthesis (Fmoc solid-phase peptide synthesis), no expression host
T4 sequence (P15336 352-410): T1 sequence (P15336 352-410)
Protocol: as §1, §2, §3, §4

With “Ac-LEQQLEELAQENEELEKEAAELQQQIARLKNEVAKLENENKTLDREIKALQREYSHKSD-NH2 [ATF2W]” the “outcome of TBS selection” value (ATF2 bZIP-CRE DNA) was “single dominant hit”, the “increase in helicity upon mixing, relative to the average” value (ATF2; 1:1 mixture with ATF2 (5 μM each) vs average of individual components (10 μM each), 20 mM potassium phosphate, 150 mM potassium fluoride, 10 mM TCEP.HCl, 222 nm) was 32% and the “222/208 ratio of heterodimer spectrum” value (ATF2; 1:1 mixture with ATF2 (5 μM each)) was 0.8. For the same substance, the “fold selectivity for ATF2 over CREB1” value (CREB1-CRE complex) was ~3 -fold, the “fold selectivity for ATF2 over cJun” value (cJun-TRE complex; FP IC50, cJun-TRE vs ATF2-CRE) was ~3 -fold and the IC50 (cJun-TRE complex; FP, FAM-TRE DNA, equivalent experiment, pH 7.4) was 1850 ± 213 nM. The “ATF2-CRE antagonism at top concentrations” value (ATF2-CRE DNA interaction) was “reducing the FP value to that of free DNA”.
